According to US20140260103A1, “Methods of Making Solid Stick Antiperspirant Compositions” (The Procter & Gamble Company, priority 2013, published 2014):

Experiment: Hygroscopicity: moisture pick up of antiperspirant active in controlled relative humidity
Format: physicochemical
Details: at 86% RH, 5 days, 20° C.
Method: One way to evaluate the hygroscopic nature of an antiperspirant active is to determine the equilibrium moisture pick up of the active after 5 days in a controlled relative humidity environment. Specific humidity chambers can be created placing saturated salt solutions in desiccators at a specific temperature. Different salts are used to create different humidities, for example potassium chloride can be used to make an 86% relative humidity (RH) environment at 20° C. In general there is an increase in moisture pick up as humidity is increased for the antiperspirant actives shown, however there are clear differences in slope and amount of moisture pick up at high humidity. Materials with higher slope and larger increases at high humidity (i.e. 86% RH) are considered to be more hygroscopic. The aluminum zirconium trichlorohydrate active (metal to chloride ratio=1.6) from Inventive Example 1 is the least hygroscopic (28% moisture pick up at 86% RH) with the aluminum zirconium tetrachlorohydrate active (metal to chloride ratio=1.2) being substantially more hygroscopic (40% moisture pick up at 86% RH). […] This may explain the substantial difference observed in the amount of sweat measured between Inventive Examples 1 and 2. […]

moisture pick up (hygroscopicity) [%]	Substance
40	aluminum zirconium tetrachlorohydrate
28	aluminum zirconium trichlorohydrate
